These results are taken from patent US12012636B2, “Pulmonary hypertension biomarker” (NOVARTIS AG, priority 2014, dated 2024).

Molecules are shown by their SMILES.

This assay has as its system candidate biomarker gene transcripts (Ccl21, Col18a1, Cxcl12, Cxcl13, Dmp1, Frzb) in rat Hy/Su lungs. The assay can be described thus: Candidate biomarker mRNA levels (QPCR) in lung in the hypoxia/Sugen rat model of PH following treatment with Imatinib. The format is in vivo. As to the method:
Sugen (250 mg; SU5416; Sigma-Aldrich®) was dissolved in vehicle (12.5 ml; 0.5% (wt/vol) carboxyl methylcellulose sodium, 0.9% (wt/vol) NaCl, 0.4% (vol/vol) polysorbate, 0.9% (vol/vol) benzyl alcohol in deionized water), sonicated for 15 min and then vortexed. On day 0, animals were anaesthetized, weighed and received Sugen 20 mg/kg by sub-cutaneous injection. […] Control animals remained in room air (21% O2) to serve as normoxic controls for the study. After 2 weeks, all animals were removed from the hypoxia chamber. At week 4, the animals were subjected to echocardiographic measurements under sevoflurane anaesthesia and monitored closely until fully recovered. Animals underwent RV catheterization for measurement of right ventricular pressure (RVP) under a mixture of ketamin and medetomidine anaesthesia. Following euthanasia by Schedule 1, the left lobe of the lung was removed, inflated and fixed in 10% formalin and embedded in paraffin for histological analysis. Lobes of the right lung were snap frozen for transcriptional profiling.
Frozen rat lung samples, collected in TT2 tissue bags (K Bioscience® Cat #520021) were crushed using the Covaris CryoPrep CP02. Total RNA from the crushed lung samples was extracted by RNeasy Mini kit according to the manufacturer's protocol (Qiagen™). Genomic DNA was removed by treatment with DNase I (Turbo DNase kit, Invitrogen). The exact quantification of RNA was determined with a NanoDrop ND-1000 spectrophotometer. RNA quality was assessed by analyzing 18S and 28S rRNAs by microfluidics-based electrophoresis on a 2100 Bioanalyzer (Agilent Technologies, Santa Clara, Calif.).
All animal procedures were conducted as described above.
In this study, following administration of an initial dose of Sugen on day 0 and a period of 14 days in a hypoxia chamber following, rats were administered 100 mg/kg of Imatinib or vehicle control daily for a further two weeks.
Following euthanasia by Schedule 1, the left lobe of the lung was removed, inflated and fixed in 10% formalin and embedded in paraffin for histological analysis, by airway inflation. Tissue sections (3 μm) were stained with antibodies against von Willebrand factor (vWF) and α-smooth muscle actin (α-SMA). Slides were examined using a DMLB and confocal microscope, digital camera, and IM50 imaging software (Leica Microsystems, London, UK). Small pulmonary vessels (10-100 μm diameter indicated by vWF staining) were assessed for degrees of circumferential α-SMA-positive staining indicative of muscularisation. Lobes of the right lung were snap frozen for candidate biomarker mRNA expression measurements. Total RNA was extracted and underwent quality control as mentioned in section above.
cDNA was synthesised using the High Capacity RNA-to-cDNA Kit (Invitrogen) according to the kit manufacturer's protocol. QPCR was performed on an ABI Prism 7900HT sequence detection system (Applied Biosystems, USA), using TaqMan Universal PCR Master Mix (Applied Biosystems). Taqman assays were purchased from Applied Biosystems®. Relative expression was normalised to a combination of 10 different housekeeping genes. Data were analyzed using the SDS RQ Manager, software (Applied Biosystems, version 2.4). Normalised gene expression values for each gene (2^−Δct) were plotted and analysed using a two-way ANOVA in GraphPad Prism 6.02.

Setting [1] is: rat Hy/Su lungs, Imatinib 100 mg/kg daily for two weeks vs vehicle, QPCR.

As for `Cc1ccc(NC(=O)c2ccc(CN3CCN(C)CC3)cc2)cc1Nc1nccc(-c2cccnc2)n1` [Imatinib], the “CCL21 mRNA expression levels in lung samples” value (day 28, imatinib group vs vehicle treated animals (increased vs naïve controls)) is “decrease”. Under setting [1], the “Ccl21 gene transcript in lung” value is listed as “down-regulated”, the “Col18a1 gene transcript in lung” value is “down-regulated”, the “Cxcl12 gene transcript in lung” value is “down-regulated” and the “Cxcl13 gene transcript in lung” value is “down-regulated”. Under setting [1], the “Dmp1 gene transcript in lung” value is “down-regulated” and the “Frzb gene transcript in lung” value is “down-regulated”.
